Data published in patent US20260070918A1, “HETEROBICYCLIC COMPOUNDS AS EP4 RECEPTOR ANTAGONISTS” (priority 2022, published 2026).
Blank lines part the entries; values can stand above or below the compound they belong to.

Legend:
EP4 receptor = EP4 receptor (Homo sapiens (Human), UniProt P35408); experiment: EP4 receptor binding assay (inhibition of [3H]PGE2 binding); settings: human recombinant Chem-1 cells, 1 nM [3H]PGE2, 2 hours @25° C.
Description: Transfected HEK 293(ebna) cells are maintained in culture and harvested, and membranes are prepared by differential centrifugation, following lysis of the cells in the presence of protease inhibitors, for use in receptor binding assays. Prostanoid receptor binding assays (for DP1, DP2 (CRTH2), EP1, EP2, EP3-III, EP4, FP, IP, and TP) are performed in 10 mM MES/KOH (pH 6.0) (EPs, FP and TP) or 10 mM HEPES/KOH (pH 7.4) (DPs and IP), containing 1 mM EDTA, 2.5-30 mM divalent cation and the appropriate radioligand that specifically binds to a target prostanoid receptor. Synthetic compounds are added in dimethyl sulfoxide which is kept constant at 1% (v/v) in all incubations. The reaction is initiated by addition of membrane protein. Non-specific binding is determined in the presence of 10 μM of the corresponding non-radioactive prostanoid. Incubations are conducted for 60-90 min at room temperature or 30° C. and terminated by rapid filtration. Compound binding is calculated as a % inhibition of the binding of the radioligand after subtracting nonspecific binding from total binding. The residual specific binding at each ligand concentration is calculated and expressed as a function of ligand concentration to construct sigmoidal concentration-response curve. Half maximal inhibitory concentration, IC50 values of compounds are determined by nonlinear regression analysis of the concentration-response curves using Hill equation curve fitting equation Y=D+[(A−D)/(1+C/IC50)^H], where Y=specific binding, A=left asymptote of the curve, D=right asymptote of the curve, C=compound concentration, and H=slope factor. The binding affinity of the compounds is determined by calculating the equilibrium inhibition constant (Ki) from the equation Ki═InPt/1+[radioligand]/Kd where Kd is the equilibrium dissociation constant for the radioligand: receptor interaction and InPt is the inflection point of the dose-response curves.
EP4 receptor binding assays were performed at MSD Pharma Service in Taiwan under the following assay conditions: • Source: Human recombinant Chem-1 cells • Ligand: 1 nM [^3H]

[1] = Liver microsomal stability, human; type: in vitro ADME; settings: pooled human liver microsomes; for microsomal CLint: read-out: In vitro CLint; for half-life: read-out: In vitro T1/2; for CLint scaled: read-out: Scale-up CLint
Description: (§1) Microsomal stability assay is performed to understand the metabolism of the representative compounds.
(§2) In vitro microsomal stability was determined in pooled human, dog, rat, and mouse liver microsomes. Test compounds (Table 2) were incubated in the presence and absence of NADPH for 0-60 min and the amount of remaining compound was quantified through LC-MS/MS analysis.

[2] = Liver microsomal stability, dog; type: in vitro ADME; settings: pooled dog liver microsomes; for microsomal CLint: read-out: In vitro CLint; for half-life: read-out: In vitro T1/2; for CLint scaled: read-out: Scale-up CLint
Description: as §1, §2

[3] = Liver microsomal stability, rat; type: in vitro ADME; settings: pooled rat liver microsomes; for microsomal CLint: read-out: In vitro CLint; for half-life: read-out: In vitro T1/2; for CLint scaled: read-out: Scale-up CLint
Description: as §1, §2

[4] = Liver microsomal stability, mouse; type: in vitro ADME; settings: pooled mouse liver microsomes; for microsomal CLint: read-out: In vitro CLint; for half-life: read-out: In vitro T1/2; for CLint scaled: read-out: Scale-up CLint
Description: as §1, §2

[5] = Rat pharmacokinetic (PK) assay; type: in vivo, Sprague-Dawley rat
Description: Test compound was dissolved in 10% DMSO, 40% PEG-400, and 50% water for intravenous (i.v.) and oral (p.o.) administration to rat. […] Three male animals received single p.o. doses by gavage tube (5 mg/kg). Blood samples were collected into K2-EDTA tubes from the jugular vein at 0.083, 0.25, 0.5, 1, 2, 4, 8, and 24 h post dosing. After centrifugation, plasma samples were prepared via protein precipitation and detected through LC-MS/MS. The pharmacokinetics parameters were calculated using Phoenix software V 8.3.4.

[6] = male, Sprague-Dawley, plasma, Rat iv, dose 5 mg/kg (table)
[7] = male, Sprague-Dawley, plasma, Rat po, dose 10 mg/kg (table)

Sequence of EP4 receptor (P35408 whole entry): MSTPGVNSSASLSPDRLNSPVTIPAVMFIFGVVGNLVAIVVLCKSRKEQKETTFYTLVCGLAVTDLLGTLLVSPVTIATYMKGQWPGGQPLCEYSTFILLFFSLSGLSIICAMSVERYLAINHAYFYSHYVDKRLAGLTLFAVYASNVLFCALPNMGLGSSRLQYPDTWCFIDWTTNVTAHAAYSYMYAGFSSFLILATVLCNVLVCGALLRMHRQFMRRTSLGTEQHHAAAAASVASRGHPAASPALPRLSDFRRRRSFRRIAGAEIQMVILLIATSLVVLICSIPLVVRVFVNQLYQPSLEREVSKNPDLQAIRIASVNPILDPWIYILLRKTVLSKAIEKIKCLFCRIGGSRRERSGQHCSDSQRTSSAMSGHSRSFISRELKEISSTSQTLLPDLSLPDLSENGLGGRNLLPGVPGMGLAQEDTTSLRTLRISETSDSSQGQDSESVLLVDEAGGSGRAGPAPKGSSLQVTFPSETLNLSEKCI

IC50 (EP4 receptor): 0.25 nM
microsomal CLint [1]: 11.4 µL/min/mg
half-life [1]: 2.03 h
CLint scaled [1]: 14.3 mL/min/kg
microsomal CLint [2]: 9.89 µL/min/mg
half-life [2]: 2.33 h
CLint scaled [2]: 24.6 mL/min/kg
microsomal CLint [3]: 13.4 µL/min/mg
half-life [3]: 1.73 h
CLint scaled [3]: 24 mL/min/kg
microsomal CLint [4]: 15 µL/min/mg
half-life [4]: 1.54 h
CLint scaled [4]: 66.1 mL/min/kg
CL_obs ([5]; Rat iv, dose 5 mg/kg (table)): 2.57 mL/min/kg
Vss_obs ([5]; Rat iv, dose 5 mg/kg (table)): 1.64 L/kg
AUC(0-inf) [5, 6]: 33600 ng·h/mL
AUC(0-t) [5, 6]: 27700 ng·h/mL
C0 [5, 6]: 8380 ng/mL
MRT [5, 6]: 5.93 h
half-life [5, 6]: 9.47 h
AUC(0-inf) [5, 7]: 26700 ng·h/mL
AUC(0-t) [5, 7]: 23400 ng·h/mL
Cmax [5, 7]: 1830 ng/mL
MRT [5, 7]: 7.98 h
Tmax [5, 7]: 6.67 h
half-life [5, 7]: 8.97 h
bioavailability ([5]; male, Sprague-Dawley, plasma, Rat po, dose 10 mg/kg vs iv 5 mg/kg (table)): 42.3%
Compound: O=C(O)c1ccc(C2(NC(=O)c3c(Cl)sc4ccn(Cc5ccc(C(F)(F)F)cc5)c34)CC2)cc1 [Example 1, 4-[1-[[2-chloro-4-[[4-(trifluoromethyl)phenyl]methyl]thieno[3,2-b]pyrrole-3-carbonyl]amino]cyclopropyl]benzoic acid]

IC50 (EP4 receptor): 28 nM
Compound: O=C(NC1(C23CC(C(=O)O)(C2)C3)CC1)c1c(Cl)sc2ccn(Cc3ccc(C(F)(F)F)cc3)c12 [Example 5, 3-[1-[[2-chloro-4-[[4-(trifluoromethyl)phenyl]methyl]thieno[3,2-b]pyrrole-3-carbonyl]amino]cyclopropyl]bicyclo[1.1.1]pentane-1-carboxylic acid]

IC50 (EP4 receptor): 50 nM
Compound: Cc1sc2ccn(Cc3ccc(C(F)(F)F)cc3)c2c1C(=O)NC1(C23CC(C(=O)O)(C2)C3)CC1 [Example 7, 3-[1-[[2-methyl-4-[[4-(trifluoromethyl)phenyl]methyl]thieno[3,2-b]pyrrole-3-carbonyl]amino]cyclopropyl]bicyclo[1.1.1]pentane-1-carboxylic acid]

IC50 (EP4 receptor): 180 nM
Compound: CC(NC(=O)c1c(Cl)sc2ccn(Cc3ccc(C(F)(F)F)cc3)c12)C12CC(C(=O)O)(C1)C2 (stereo not shown) [Example 9, 3-[1-[[2-chloro-4-[[4-(trifluoromethyl)phenyl]methyl]thieno[3,2-b]pyrrole-3-carbonyl]amino]ethyl]bicyclo[1.1.1]pentane-1-carboxylic acid]

The remaining lines, values behind:

Compound: 3-[1-[[2-methyl-4-[[4-(trifluoromethyl)phenyl]methyl]thieno[3,2-b]pyrrole-3-carbonyl]amino]ethyl]bicyclo[1.1.1]pentane-1-carboxylic acid [Example 10]
IC50 (EP4 receptor): 620 nM

Compound: O=C(O)c1ccc(C2(NC(=O)c3c(CO)sc4ccn(Cc5ccc(C(F)(F)F)cc5)c34)CC2)cc1 [Example 2, 4-[1-[[2-(hydroxymethyl)-4-[[4-(trifluoromethyl)phenyl]methyl]thieno[3,2-b]pyrrole-3-carbonyl]amino]cyclopropyl]benzoic acid]
IC50 (EP4 receptor): 1.1 nM

Compound: O=C(O)c1ccc(C2(NC(=O)c3c(F)sc4ccn(Cc5ccc(C(F)(F)F)cc5)c34)CC2)cc1 [Example 3, 4-(1-(2-fluoro-4-(4-(trifluoromethyl)benzyl)-4H-thieno[3,2-b]pyrrole-3-carboxamido)cyclopropyl)benzoic acid]
IC50 (EP4 receptor): 0.48 nM
microsomal CLint [1]: 4.03 µL/min/mg
half-life [1]: 5.73 h
CLint scaled [1]: 5.05 mL/min/kg
microsomal CLint [2]: 3.2 µL/min/mg
half-life [2]: 7.23 h
CLint scaled [2]: 7.97 mL/min/kg
microsomal CLint [3]: 8.4 µL/min/mg
half-life [3]: 2.75 h
CLint scaled [3]: 15 mL/min/kg
microsomal CLint [4]: 6.85 µL/min/mg
half-life [4]: 3.37 h
CLint scaled [4]: 30.1 mL/min/kg

Compound: COc1sc2ccn(Cc3ccc(C(F)(F)F)cc3)c2c1C(=O)NC1(c2ccc(C(=O)O)cc2)CC1 [Example 4, 4-(1-(2-methoxy-4-(4-(trifluoromethyl)benzyl)-4H-thieno[3,2-b]pyrrole-3-carboxamido)cyclopropyl)benzoic acid]
IC50 (EP4 receptor): 0.35 nM
microsomal CLint [1]: 3.24 µL/min/mg
half-life [1]: 7.13 h
CLint scaled [1]: 4.06 mL/min/kg
microsomal CLint [2]: 6.06 µL/min/mg
half-life [2]: 3.82 h
CLint scaled [2]: 15.1 mL/min/kg
microsomal CLint [3]: 11.1 µL/min/mg
half-life [3]: 2.08 h
CLint scaled [3]: 19.8 mL/min/kg
microsomal CLint [4]: 10.6 µL/min/mg
half-life [4]: 2.18 h
CLint scaled [4]: 46.7 mL/min/kg

Compound: O=C(NC1(C23CCC(C(=O)O)(CC2)CC3)CC1)c1c(Cl)sc2ccn(Cc3ccc(C(F)(F)F)cc3)c12 [Example 6, 4-[1-[[2-chloro-4-[[4-(trifluoromethyl)phenyl]methyl]thieno[3,2-b]pyrrole-3-carbonyl]amino]cyclopropyl]bicyclo[2.2.2]octane-1-carboxylic acid]
IC50 (EP4 receptor): 8.4 nM

Compound: Cc1sc2ccn(Cc3ccc(C(F)(F)F)cc3)c2c1C(=O)NC1(C23CCC(C(=O)O)(CC2)CC3)CC1 [Example 8, 4-[1-[[2-methyl-4-[[4-(trifluoromethyl)phenyl]methyl]thieno[3,2-b]pyrrole-3-carbonyl]amino]cyclopropyl]bicyclo[2.2.2]octane-1-carboxylic acid]
IC50 (EP4 receptor): 4.9 nM

Compound: O=C(O)c1ccc(C2(NC(=O)c3c(C(F)(F)F)sc4ccn(Cc5ccc(C(F)(F)F)cc5)c34)CC2)cc1 [Example 11, 4-(1-(2-(trifluoromethyl)-4-(4-(trifluoromethyl)benzyl)-4H-thieno[3,2-b]pyrrole-3-carboxamido)cyclopropyl)benzoic acid]
IC50 (EP4 receptor): 1.2 nM
